O=S(=O)([O-])c1cccc2c(S(=O)(=O)[O-])cccc12.[Na+].[Na+]
solubility (mole fraction)
Details	in acetone	in ethanol	in isopropanol	in methanol	in water
283.15 K	5.45e-05	0.000107	2.55e-05	0.00017	0.00572
293.15 K	5.92e-05	0.00011	5.68e-05	0.000221	0.00664
303.15 K	7.41e-05	0.00011	6.45e-05	0.000251	0.00784
313.15 K	9.49e-05	0.000147	8.74e-05	0.00027	0.00919
323.15 K	9.73e-05	0.000184	9.19e-05	0.00028	0.0106
